{"source": "patent US20050065132A1", "about": "“2-alkylidene-19-nor-vitamin D derivatives for the treatment or prevention of a secon hip fracture” (Pfizer Inc, priority 2003, published 2005)", "origin": "cited, not measured here", "key": {"[1]": {"system": "intestinal calcium transport"}, "[2]": {"system": "serum calcium (bone calcium mobilization)", "conditions": "given for 7 days in a chronic mode, 130 and 260 pmol/day"}, "[3]": {"conditions": "130 or 260 pmol dose, chronic 7 days"}}, "note": "Where two headings read alike, the source gives them in different places."}
{"smiles": "C=C1/C(=C\\C=C2/CCC[C@]3(C)[C@@H]([C@H](C)CCCC(C)(C)O)CC[C@@H]23)C[C@@H](O)C[C@@H]1O", "note": "[1,25-(OH)2D3, 1,25-dihydroxyvitamin D3, reference compound]", "values": [{"measurement": "change in intestinal calcium transport", "setting": "[1]; 260 pmol/day, only dose tested", "value": "expected elevation"}]}
{"smiles": "C=C1[C@H](O)CC(=C/C=C2\\CCC[C@]3(C)[C@@H]([C@H](C)CCCC(C)(C)O)CC[C@@H]23)C[C@H]1O", "note": "[2-Methylene-19-Nor-1,25-(OH)2D3, 1α,25-dihydroxy-2-methylene-19-nor-vitamin D3]", "values": [{"measurement": "change in intestinal calcium transport", "setting": "[1]; [3]", "value": "no intestinal calcium transport activity"}, {"measurement": "bone calcium mobilization", "setting": "[2]", "value": "extremely strong"}]}
{"smiles": "C=C1[C@H](O)CC(=C/C=C2\\CCC[C@]3(C)[C@@H]([C@@H](C)CCCC(C)(C)O)CC[C@@H]23)C[C@H]1O", "note": "[2-Methylene-19-Nor-20S-1,25-(OH)2D3, (20S)-1α,25-dihydroxy-2-methylene-19-nor-vitamin D3]", "values": [{"measurement": "change in intestinal calcium transport", "setting": "[1]; [3]", "value": "no significant change"}, {"measurement": "bone calcium mobilization", "setting": "[2]", "value": "most potent compound tested"}]}
